# Columns and labels:
# [1] = test system: HBV (HepG2.117 cell line, inducibly HBV producing); experiment: Anti-HBV activity: intracellular HBV DNA by real-time PCR in HepG2.117 cells after 3 days of treatment; assay type: cell-based, hepatitis B virus; details: Hepatitis B virus, HepG2.117, 72 h, HepG2.117 cells, 3 days of treatment, intracellular HBV DNA by real-time PCR; mean value; read-out: EC50 (μM, mean value)
# In short: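 Tet-off HepG2.117; HBV replication induced (no doxycycline); serial compound dilutions, 3 d; intracellular HBV DNA by real-time PCR, HBV-specific primers/probe.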
# in vitro = assay type: cell-based; details: human, HepG2 or HepG2.117 cells, 3-days incubation (unmarked values), ATPlite; mean value
# In short: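 Luminescent ATP quantitation served as the viability endpoint following a 3- or 4-day incubation with test compounds.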
Compound,EC50 [1] [µM],CC50 at 3 days (in vitro) [µM]
"CC(C)Nc1nc2c(c(=O)n1-c1ccc(C(=O)NCCN3CCOCC3)cc1)C[C@@H](C)N(C(=O)c1ccc(Cl)c(Cl)c1)C2 [Compound C203, 4-[(6R)-7-(3,4-dichlorobenzoyl)-6-methyl-4-oxo-2-[(propan-2-yl)amino]-5,6,7,8-tetrahydropyrido[3,4-d]pyrimidin-3(4H)-yl]-N-[2-(morpholin-4-yl)ethyl]benzamide]",0.15,> 50
"CC(C)Nc1nc2c(c(=O)n1-c1ccc(C(=O)NCCO)cc1)C[C@@H](C)N(C(=O)c1ccc(Cl)c(Cl)c1)C2 [Compound C204, 4-[(6R)-7-(3,4-dichlorobenzoyl)-6-methyl-4-oxo-2-[(propan-2-yl)amino]-5,6,7,8-tetrahydropyrido[3,4-d]pyrimidin-3(4H)-yl]-N-(2-hydroxyethyl)benzamide]",0.54,> 50
"COCCNC(=O)c1ccc(-n2c(NC(C)C)nc3c(c2=O)C[C@@H](C)N(C(=O)c2ccc(Cl)c(Cl)c2)C3)cc1 [Compound C205, 4-[(6R)-7-(3,4-dichlorobenzoyl)-6-methyl-4-oxo-2-[(propan-2-yl)amino]-5,6,7,8-tetrahydropyrido[3,4-d]pyrimidin-3(4H)-yl]-N-(2-methoxyethyl)benzamide]",0.13,> 50
"CC(C)Nc1nc2c(c(=O)n1-c1ccc3c(c1)CC(=O)N3)C[C@@H](C)N(C(=O)c1ccc(Cl)c(Cl)c1)C2 [Compound C206, (6R)-7-(3,4-dichlorobenzoyl)-6-methyl-3-(2-oxo-2,3-dihydro-1H-indol-5-yl)-2-[(propan-2-yl)amino]-5,6,7,8-tetrahydropyrido[3,4-d]pyrimidin-4(3H)-one]",0.16,48.9
"C[C@@H]1Cc2c(nc(NC(C)(C)c3cnn(C)c3)n(-c3ccc(S(C)(=O)=O)cc3)c2=O)CN1C(=O)c1ccc(Cl)c(Cl)c1 [Compound C207, (6R)-7-(3,4-dichlorobenzoyl)-3-[4-(methanesulfonyl)phenyl]-6-methyl-2-{[2-(1-methyl-1H-pyrazol-4-yl)propan-2-yl]amino}-5,6,7,8-tetrahydropyrido[3,4-d]pyrimidin-4(3H)-one]",0.59,> 50
"CC(C)Nc1nc2c(c(=O)n1-c1ccc(C(=O)NCCN3CCN(C)CC3)cc1)C[C@@H](C)N(C(=O)c1ccc(Cl)c(Cl)c1)C2 [Compound C208, 4-[(6R)-7-(3,4-dichlorobenzoyl)-6-methyl-4-oxo-2-[(propan-2-yl)amino]-5,6,7,8-tetrahydropyrido[3,4-d]pyrimidin-3(4H)-yl]-N-[2-(4-methylpiperazin-1-yl)ethyl]benzamide]",0.62,26.3
"CC(C)Nc1nc2c(c(=O)n1-c1ccc(C(=O)NC3COC3)cc1)C[C@@H](C)N(C(=O)c1ccc(Cl)c(Cl)c1)C2 [Compound C209, 4-[(6R)-7-(3,4-dichlorobenzoyl)-6-methyl-4-oxo-2-[(propan-2-yl)amino]-5,6,7,8-tetrahydropyrido[3,4-d]pyrimidin-3(4H)-yl]-N-(oxetan-3-yl)benzamide]",0.82,> 50
"CNC(=O)c1ccc(-n2c(NC(C)C)nc3c(c2=O)CCN(C(=O)c2ccc(Cl)c(Cl)c2)C3)cc1Cl [Compound C210, 2-chloro-4-[7-(3,4-dichlorobenzoyl)-4-oxo-2-[(propan-2-yl)amino]-5,6,7,8-tetrahydropyrido[3,4-d]pyrimidin-3(4H)-yl]-N-methylbenzamide]",0.27,> 50
"Cc1noc(C)c1-c1ccc(-n2c(NC(C)C)nc3c(c2=O)C[C@@H](C)N(C(=O)c2ccc(Cl)c(Cl)c2)C3)cc1 [Compound C211, (6R)-7-(3,4-dichlorobenzoyl)-3-[4-(3,5-dimethyl-1,2-oxazol-4-yl)phenyl]-6-methyl-2-[(propan-2-yl)amino]-5,6,7,8-tetrahydropyrido[3,4-d]pyrimidin-4(3H)-one]",0.15,> 50
"CC(C)Nc1nc2c(c(=O)n1-c1ccc(-c3ccns3)cc1)C[C@@H](C)N(C(=O)c1ccc(Cl)c(Cl)c1)C2 [Compound C212, (6R)-7-(3,4-dichlorobenzoyl)-6-methyl-2-[(propan-2-yl)amino]-3-[4-(1,2-thiazol-5-yl)phenyl]-5,6,7,8-tetrahydropyrido[3,4-d]pyrimidin-4(3H)-one]",0.26,> 50
"CC(C)Nc1nc2c(c(=O)n1-c1ccc(-c3cnc[nH]3)cc1)C[C@@H](C)N(C(=O)c1ccc(Cl)c(Cl)c1)C2 [Compound C213, (6R)-7-(3,4-dichlorobenzoyl)-3-[4-(1H-imidazol-5-yl)phenyl]-6-methyl-2-[(propan-2-yl)amino]-5,6,7,8-tetrahydropyrido[3,4-d]pyrimidin-4(3H)-one]",0.36,> 50
"CC(C)Nc1nc2c(c(=O)n1-c1ccc(C(=O)NCC(C)(C)C(=O)O)cc1)C[C@@H](C)N(C(=O)c1ccc(Cl)c(Cl)c1)C2 [Compound C214, 3-{4-[(6R)-7-(3,4-dichlorobenzoyl)-6-methyl-4-oxo-2-[(propan-2-yl)amino]-5,6,7,8-tetrahydropyrido[3,4-d]pyrimidin-3(4H)-yl]benzamido}-2,2-dimethylpropanoic acid]",14.6,> 50
"CC(C)Nc1nc2c(c(=O)n1-c1ccc(N3CCCC3CO)cc1)C[C@@H](C)N(C(=O)c1ccc(Cl)c(Cl)c1)C2 (stereo partly drawn) [Compound C215, (6R)-7-(3,4-dichlorobenzoyl)-3-{4-[2-(hydroxymethyl)pyrrolidin-1-yl]phenyl}-6-methyl-2-[(propan-2-yl)amino]-5,6,7,8-tetrahydropyrido[3,4-d]pyrimidin-4(3H)-one]",0.21,31.9
"CC(C)Nc1nc2c(c(=O)n1-c1ccc(N3CCOCC3)cc1)C[C@@H](C)N(C(=O)c1ccc(Cl)c(Cl)c1)C2 [Compound C218, (6R)-7-(3,4-dichlorobenzoyl)-6-methyl-3-[4-(morpholin-4-yl)phenyl]-2-[(propan-2-yl)amino]-5,6,7,8-tetrahydropyrido[3,4-d]pyrimidin-4(3H)-one]",0.16,> 50
"CNC(=O)c1ccc(-n2c(NC(C)C)nc3c(c2=O)CCN(C(=O)c2ccc(Cl)c(Cl)c2)C3)cc1F [Compound C219, 4-[7-(3,4-dichlorobenzoyl)-4-oxo-2-[(propan-2-yl)amino]-5,6,7,8-tetrahydropyrido[3,4-d]pyrimidin-3(4H)-yl]-2-fluoro-N-methylbenzamide]",0.28,> 50
"CNC(=O)c1ccc(-n2c(NCc3ccc(OC)cc3)nc3c(c2=O)CCN(C(=O)c2ccc(Cl)c(Cl)c2)C3)cc1F [Compound C220, 4-[7-(3,4-dichlorobenzoyl)-2-{[(4-methoxyphenyl)methyl]amino}-4-oxo-5,6,7,8-tetrahydropyrido[3,4-d]pyrimidin-3(4H)-yl]-2-fluoro-N-methylbenzamide]",0.42,> 50
"Cc1cc(C(=O)N2CCc3c(nc(NC(C)C)n(-c4ccc(S(C)(=O)=O)cc4)c3=O)C2)ccc1Cl [Compound C221, 7-(4-chloro-3-methylbenzoyl)-3-[4-(methanesulfonyl)phenyl]-2-[(propan-2-yl)amino]-5,6,7,8-tetrahydropyrido[3,4-d]pyrimidin-4(3H)-one]",1.58,> 50
"CC(C)Nc1nc2c(c(=O)n1-c1ccc(S(C)(=O)=O)cc1)CCN(C(=O)c1ccc(Cl)c(C(C)C)c1)C2 [Compound C222, 7-[4-chloro-3-(propan-2-yl)benzoyl]-3-[4-(methanesulfonyl)phenyl]-2-[(propan-2-yl)amino]-5,6,7,8-tetrahydropyrido[3,4-d]pyrimidin-4(3H)-one]",1.45,> 50
"CC(C)Nc1nc2c(c(=O)n1-c1ccc(S(C)(=O)=O)cc1)CCN(C(=O)c1ccc(Cl)c(Cl)n1)C2 [Compound C223, 7-(5,6-dichloropyridine-2-carbonyl)-3-[4-(methanesulfonyl)phenyl]-2-[(propan-2-yl)amino]-5,6,7,8-tetrahydropyrido[3,4-d]pyrimidin-4(3H)-one]",> 10,> 50
"Cc1coc2ccc(C(=O)N3CCc4c(nc(NC(C)C)n(-c5ccc(S(C)(=O)=O)cc5)c4=O)C3)cc12 [Compound C224, 3-[4-(methanesulfonyl)phenyl]-7-(3-methyl-1-benzofuran-5-carbonyl)-2-[(propan-2-yl)amino]-5,6,7,8-tetrahydropyrido[3,4-d]pyrimidin-4(3H)-one]",6.71,> 50
"CC(C)Nc1nc2c(c(=O)n1-c1ccc(S(C)(=O)=O)cc1)CCN(C(=O)c1ccc(Cl)c(C3CC3)c1)C2 [Compound C225, 7-(4-chloro-3-cyclopropylbenzoyl)-3-[4-(methanesulfonyl)phenyl]-2-[(propan-2-yl)amino]-5,6,7,8-tetrahydropyrido[3,4-d]pyrimidin-4(3H)-one]",3.46,> 50
COC(=O)c1ccc(-n2c(NC(C)C)nc3c(c2=O)C[C@@H](C)N(C(=O)c2ccc(Cl)c(Cl)c2)C3)cn1 [Compound C226],2.3,> 50
"CC(C)NC(=O)c1ccc(-n2c(NC(C)C)nc3c(c2=O)C[C@@H](C)N(C(=O)c2ccc(Cl)c(Cl)c2)C3)cn1 [Compound C227, 5-[(6R)-7-(3,4-dichlorobenzoyl)-6-methyl-4-oxo-2-[(propan-2-yl)amino]-5,6,7,8-tetrahydropyrido[3,4-d]pyrimidin-3(4H)-yl]-N-(propan-2-yl)pyridine-2-carboxamide]",0.18,> 50
"CC(C)Nc1nc2c(c(=O)n1-c1ccc(Cl)nc1)C[C@@H](C)N(C(=O)c1ccc(Cl)c(Cl)c1)C2 [Compound C228, (6R)-3-(6-chloropyridin-3-yl)-7-(3,4-dichlorobenzoyl)-6-methyl-2-[(propan-2-yl)amino]-5,6,7,8-tetrahydropyrido[3,4-d]pyrimidin-4(3H)-one]",0.27,> 50

# — US20230091047A1 (priority 2019, published 2023)
